{
  "source": "paper PMC9527238",
  "about": "“Glutamate and GABAA receptor crosstalk mediates homeostatic regulation of neuronal excitation in the mammalian brain” (Signal Transduction and Targeted Therapy, 2022)",
  "key": {"rat α1β2γ2 GABAARs": {"target": "T1, rat α1β2γ2 GABAARs (Rattus norvegicus, UniProt P62813+P63138)", "T1 construct": "expressed in transfected cells; host or cells: HEK293", "T1 sequence (P62813 28-455)": "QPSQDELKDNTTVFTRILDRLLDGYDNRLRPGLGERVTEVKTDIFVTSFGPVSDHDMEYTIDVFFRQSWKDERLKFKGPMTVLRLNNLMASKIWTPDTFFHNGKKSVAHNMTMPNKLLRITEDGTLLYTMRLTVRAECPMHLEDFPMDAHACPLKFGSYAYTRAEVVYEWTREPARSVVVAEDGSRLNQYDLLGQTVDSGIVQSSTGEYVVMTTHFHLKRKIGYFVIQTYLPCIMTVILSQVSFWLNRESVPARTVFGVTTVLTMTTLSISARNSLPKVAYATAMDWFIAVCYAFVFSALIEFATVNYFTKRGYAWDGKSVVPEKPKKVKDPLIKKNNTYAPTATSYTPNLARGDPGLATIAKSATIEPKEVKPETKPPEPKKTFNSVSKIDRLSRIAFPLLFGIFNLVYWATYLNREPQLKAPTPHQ", "T1 sequence (P63138 26-474)": "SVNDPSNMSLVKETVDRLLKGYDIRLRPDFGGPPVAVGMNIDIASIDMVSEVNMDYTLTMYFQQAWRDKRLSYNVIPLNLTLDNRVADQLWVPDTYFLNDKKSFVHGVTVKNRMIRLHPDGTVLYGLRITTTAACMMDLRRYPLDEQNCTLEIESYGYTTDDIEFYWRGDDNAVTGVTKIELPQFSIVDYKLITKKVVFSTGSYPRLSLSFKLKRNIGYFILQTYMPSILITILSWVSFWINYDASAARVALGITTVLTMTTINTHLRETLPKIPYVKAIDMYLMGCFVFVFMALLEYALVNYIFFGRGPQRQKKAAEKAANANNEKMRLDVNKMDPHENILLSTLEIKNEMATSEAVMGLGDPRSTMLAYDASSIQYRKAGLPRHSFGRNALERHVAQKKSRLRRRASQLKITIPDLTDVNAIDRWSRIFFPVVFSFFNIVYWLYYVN", "T1 sequence (P18508 39-466 partner)": "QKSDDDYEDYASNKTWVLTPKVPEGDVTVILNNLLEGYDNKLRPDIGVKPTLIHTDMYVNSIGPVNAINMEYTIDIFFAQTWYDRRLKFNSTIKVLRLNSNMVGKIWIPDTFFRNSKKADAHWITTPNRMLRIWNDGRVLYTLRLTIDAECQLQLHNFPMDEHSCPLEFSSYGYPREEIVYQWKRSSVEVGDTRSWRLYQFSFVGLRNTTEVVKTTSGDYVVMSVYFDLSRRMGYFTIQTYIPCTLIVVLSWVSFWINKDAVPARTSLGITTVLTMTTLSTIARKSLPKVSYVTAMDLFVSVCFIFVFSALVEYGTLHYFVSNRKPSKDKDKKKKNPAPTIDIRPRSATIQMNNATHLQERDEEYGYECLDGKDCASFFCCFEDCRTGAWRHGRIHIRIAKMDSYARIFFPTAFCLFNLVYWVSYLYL", "test": "Whole-cell patch clamp of GABA-evoked currents, HEK293 cells expressing wild-type α1β2γ2", "type": "cell-based", "description": "(§1) Co-expression of the α and β subunits is the minimum requirement for a functional recombinant GABAAR expressed in a heterologous cell line such as HEK293, while co-expression of the α, β and γ subunits is required for the recombinant receptor with a full pharmacological profile.[2] We therefore transiently expressed either rat α1β2 or α1β2γ2 subunits in HEK293 cells.\n(§2) HEK293 cells were cultured in DMEM (Invitrogen) supplemented with 10% fetal bovine serum. Cells were grown to 40–60% confluence and transiently transfected using Lipofectamine 2000 (Invitrogen) with 1:0.5–1 plasmid/lipid ratio. Cells were transfected with a pBK-CMV expression vector containing a rat recombinant GABAAR α, β or γ subunits. Co-transections were done with a plasmid ratio of 1:1 αβ and 2:2:1 for αβγ subunit combinations, respectively. pcDNA3.1-GFP was also co-transfected along with GABAAR subunits as a transfected marker in order to facilitate the visualization of the transfected cells during electrophysiological experiments. Cells were re-plated on glass coverslips after 15–20 h transfection and were cultured for an additional 15–24 h before whole-cell patch-clamp recordings.\n(§3) Whole-cell patch-clamp recordings were performed under voltage-clamp mode using an Axopatch 200B or 1D patch-clamp amplifier (Molecular Devices) on HEK293 cells and cultured neurons. Whole-cell currents were recorded at a holding potential of −60 mV, and signals were filtered at 2 kHz, digitized at 10 kHz (Digidata 1322 A). Recording pipettes (3–5 MΩ) were filled with the intracellular solution that contained (mM): CsCl 140, HEPES 10, Mg-ATP 4, QX-314 5, pH 7.20; osmolarity, 290–295 mOsm. BAPTA (10 mM) was added in the intracellular solution. The coverslips were continuously superfused with the extracellular solution containing (mM): NaCl 140, KCl 5.4, HEPES 10, MgCl2 1.0, CaCl2 1.3, glucose 20, pH 7.4; osmolarity, 305–315 mOsm. […] Dose–response curves were created by fitting data to Hill equation: I = Imax/[1 + (EC50/[A])^n], where I is the current, Imax is the maximum current, [A] is a given concentration of agonist, n is the Hill coefficient. […] All experiments were performed at room temperature."}, "α1/β3/γ2 GABAAR": {"target": "T2, α1/β3/γ2 GABAAR (Rattus norvegicus, UniProt P62813+P63079)", "T2 construct": "expressed in transfected cells; host or cells: HEK293", "T2 sequence (P62813 28-455)": "as the sequence (P62813 28-455) above", "T2 sequence (P63079 26-473)": "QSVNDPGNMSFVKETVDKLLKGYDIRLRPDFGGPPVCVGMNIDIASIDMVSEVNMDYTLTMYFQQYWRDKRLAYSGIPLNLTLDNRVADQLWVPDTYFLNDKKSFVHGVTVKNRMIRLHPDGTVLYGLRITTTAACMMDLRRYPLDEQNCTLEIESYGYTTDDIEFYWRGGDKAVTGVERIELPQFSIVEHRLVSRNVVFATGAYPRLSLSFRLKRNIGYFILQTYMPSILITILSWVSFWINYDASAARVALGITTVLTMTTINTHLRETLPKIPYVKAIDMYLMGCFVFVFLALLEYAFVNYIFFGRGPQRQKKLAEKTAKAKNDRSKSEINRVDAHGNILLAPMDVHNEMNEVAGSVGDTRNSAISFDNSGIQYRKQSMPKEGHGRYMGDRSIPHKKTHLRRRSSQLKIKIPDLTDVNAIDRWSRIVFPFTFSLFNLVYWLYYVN", "T2 sequence (P18508 39-466 partner)": "as the sequence (P18508 39-466 partner) above", "test": "Patch clamp, HEK293, β3-containing GABAAR", "type": "cell-based", "conditions": "wild-type α1/β3/γ2"}, "[1]": {"target": "T3, αK104βE181G GABAAR (α1 K104D and β2 E181G) (Rattus norvegicus, UniProt P62813+P63138, E206G/K131D)", "T3 construct": "expressed in transfected cells; host or cells: HEK293", "T3 sequence (P62813 28-455 K131D)": "as the sequence (P62813 28-455) above, with K104D counted along it", "T3 sequence (P63138 26-474 E206G)": "as the sequence (P63138 26-474) above, with E181G counted along it", "test": "Patch clamp, HEK293, double mutant α1β2 GABAAR", "type": "cell-based", "conditions": "HEK293, read-out: Glutamate potentiation of GABA currents, % of control, normalized to wild-type α1β2", "from_the_text": "(§4) The subunits are color-coded individually. The boxed regions are further enlarged in the middle panels, highlighting the predicted glutamate binding pocket in the α+ and β− interface, just below the loop C. […] Relative potentiation was obtained by normalizing potentiation observed in the mutated receptor to that in the respective wild-type receptor.\n(§5) To further investigate the characteristics of these four residues, double amino acid substitutions were introduced at residue pairs that are located at different (α1β2) subunits (Fig. 3f and Supplementary Fig. S6b).\nas §2\n(§6) The site-directed mutagenesis of α, β or γ subunits were performed by using the QuikChange method (Stratagene). […] Wild-type or mutant subunits were transfected in HEK293 cells and subjected to electrophysiology examinations.\n(§7) Whole-cell patch-clamp recordings were performed under voltage-clamp mode using an Axopatch 200B or 1D patch-clamp amplifier (Molecular Devices) on HEK293 cells and cultured neurons. Whole-cell currents were recorded at a holding potential of −60 mV, and signals were filtered at 2 kHz, digitized at 10 kHz (Digidata 1322 A). Recording pipettes (3–5 MΩ) were filled with the intracellular solution that contained (mM): CsCl 140, HEPES 10, Mg-ATP 4, QX-314 5, pH 7.20; osmolarity, 290–295 mOsm. BAPTA (10 mM) was added in the intracellular solution."}, "αE137GβE181G GABAAR": {"target": "T4, αE137GβE181G GABAAR (Rattus norvegicus, UniProt P62813+P63138, E164G/E206G)", "T4 construct": "expressed in transfected cells; host or cells: HEK293", "T4 sequence (P62813 28-455 E164G)": "as the sequence (P62813 28-455) above, with E137G counted along it", "T4 sequence (P63138 26-474 E206G)": "as the sequence (P63138 26-474) above, with E181G counted along it", "test": "Patch clamp, HEK293, double mutant α1β2 GABAAR", "type": "cell-based", "conditions": "HEK293, read-out: Glutamate potentiation of GABA currents, % of control, normalized to wild-type α1β2", "from_the_text": "as §4, §5, §2, §6, §7"}, "αK104D,E137Gβ GABAAR": {"target": "T5, αK104D,E137Gβ GABAAR (Rattus norvegicus, UniProt P62813+P63138, E164G/K131D)", "T5 construct": "expressed in transfected cells; host or cells: HEK293", "T5 sequence (P62813 28-455 K131D/E164G)": "as the sequence (P62813 28-455) above, with K104D, E137G counted along it", "T5 sequence (P63138 25-474 limits assumed)": "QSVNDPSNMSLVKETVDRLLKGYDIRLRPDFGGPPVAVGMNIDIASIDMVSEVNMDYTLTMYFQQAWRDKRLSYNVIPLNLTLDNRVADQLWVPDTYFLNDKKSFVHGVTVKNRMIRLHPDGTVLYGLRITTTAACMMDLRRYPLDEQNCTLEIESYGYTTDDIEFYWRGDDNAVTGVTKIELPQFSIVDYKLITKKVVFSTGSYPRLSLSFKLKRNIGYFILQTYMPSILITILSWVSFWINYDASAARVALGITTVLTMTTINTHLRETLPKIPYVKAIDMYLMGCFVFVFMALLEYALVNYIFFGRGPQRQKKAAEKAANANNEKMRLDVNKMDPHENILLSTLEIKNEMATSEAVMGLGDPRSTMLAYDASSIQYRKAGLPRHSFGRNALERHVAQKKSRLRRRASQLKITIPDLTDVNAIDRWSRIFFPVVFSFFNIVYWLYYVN", "test": "Patch clamp, HEK293, double mutant α1β2 GABAAR", "type": "cell-based", "conditions": "HEK293, read-out: Glutamate potentiation of GABA currents, % of control, normalized to wild-type α1β2", "from_the_text": "as §4, §5, §2, §6, §7"}, "[2]": {"test_system": "GABAAR-mediated currents, WT mice", "test": "Whole-cell recording of CA1 neurons, hippocampal slices of WT mice", "type": "cell-based, mouse", "conditions": "L-Glu 50 µM", "description": "We next determined if glutamate-mediated allosteric potentiation of GABAAR function was impaired in hippocampal slices acutely prepared from postnatal 90-day-old KI mice. Whole-cell recordings of CA1 neurons were performed under voltage clamp configuration at a holding potential of −60 mV.\nMice were deeply anesthetized with urethane (1.5 g/kg, i.p.) and transcardially perfused with ice cold sucrose hypertonic cutting solution (in mM: KCl 3.0, NaH2PO4.H2O 1.25, NaHCO3 26, Na-vitamin C 0.4, Na-lactate 2.0, Na-pyruvate 2.0, D-glucose 10.0, Sucrose 220, CaCl2 0.1, MgCl2 2, MgSO4 4.0, pH 7.4, 290–300 mOsm/l) prior to decapitation as described previously.[47] After decapitation, the brain was rapidly removed and transferred to the ice cold cutting solution bubbled with 95% O2 and 5% CO2, and acute coronal brain slices (400 μm) were prepared on a Leica vibratome (VT1200S, Germany). All brain slices were placed into a standard artificial cerebral spinal fluid (ACSF) (in mM: NaCl 124, KCl 2.8, NaH2PO4.H2O 1.25, NaHCO3 26, Na-vitamin C 0.4, Na-lactate 2.0, Na-pyruvate 2.0, D-glucose 10.0, CaCl2 2, MgSO4 1.2, pH 7.4, 290–300 mOsm/l) incubated at 35 °C for 2 h prior to recording. Field excitatory postsynaptic potential (fEPSP) recordings were performed under current-clamp mode using HEKA EPC10 patch-clamp amplifier (HEKA Electronic, Lambrecht/Pfalz, Germany). […]"}, "rat α1β2 GABAARs": {"target": "T6, rat α1β2 GABAARs (Rattus norvegicus, UniProt P62813+P63138)", "T6 construct": "expressed in transfected cells; host or cells: HEK293", "T6 sequence (P62813 28-455)": "as the sequence (P62813 28-455) above", "T6 sequence (P63138 26-474)": "as the sequence (P63138 26-474) above", "test": "Whole-cell patch clamp of GABA-evoked currents, HEK293 cells expressing α1β2", "type": "cell-based", "from_the_text": "as §1\nHEK293 cells were transiently transfected with rat GABAAR α1/β2 (a–e) or α1/β2/γ2 (f) subunits. Whole-cell voltage-clamp recordings were performed with a chloride-based intracellular recording solution at a holding membrane potential of −60 mV.\nas §2, §3"}},
  "data": [
    {"smiles": "N[C@@H](CCC(=O)O)C(=O)O", "note": "[glutamate, Glutamate]", "values": [
      {"measurement": "GABA currents in presence of ligand, compared with GABA alone", "setting": "rat α1β2γ2 GABAARs", "value": "169.3 ± 6.9", "unit": "%"},
      {"measurement": "Relative potentiation", "setting": "rat α1β2γ2 GABAARs", "value": 100.0, "unit": "%"},
      {"measurement": "potentiation of GABA-induced currents by glutamate", "setting": "α1/β3/γ2 GABAAR", "value": "could also potentiate GABA-induced currents"},
      {"measurement": "activity at 100 µM", "setting": "[1]; glutamate 100 μM", "value": 6.6, "unit": "%"},
      {"measurement": "activity at 1000 µM", "setting": "[1]; glutamate 1 mM", "value": "27.4 ± 12.6", "unit": "%"},
      {"measurement": "activity at 100 µM", "setting": "αE137GβE181G GABAAR; glutamate 100 μM", "value": "9.2 ± 3", "unit": "%"},
      {"measurement": "activity at 1000 µM", "setting": "αE137GβE181G GABAAR; glutamate 1 mM", "value": "16.2 ± 1.3", "unit": "%"},
      {"measurement": "activity at 100 µM", "setting": "αK104D,E137Gβ GABAAR; glutamate 100 μM", "value": "17.3 ± 12.9", "unit": "%"},
      {"measurement": "activity at 1000 µM", "setting": "αK104D,E137Gβ GABAAR; glutamate 1 mM", "value": "45.9 ± 20.9", "unit": "%"},
      {"measurement": "GABAAR-mediated IPSC currents relative to baseline", "setting": "[2]", "value": "153.0 ± 9.5", "unit": "%"},
      {"measurement": "amplitude of GABA-induced currents with glutamate co-applied", "setting": "rat α1β2 GABAARs", "value": "331.2 ± 44.5", "unit": "%"},
      {"measurement": "current produced by glutamate on its own", "setting": "rat α1β2 GABAARs", "value": "no noticeable current"},
      {"measurement": "lowest effective dose (20% potentiation)", "setting": "rat α1β2 GABAARs", "value": "around 30 μM"},
      {"measurement": "potentiation effect at saturated GABA concentration", "setting": "rat α1β2 GABAARs", "value": "almost no potentiation effect"},
      {"measurement": "EC50", "setting": "rat α1β2 GABAARs; potentiation of 1 μM GABA-induced currents, read-out: EC50 of glutamate potentiation", "value": "~180", "unit": "µM"}
    ]}
  ]
}
